{
  "source": "patent US11844794B2",
  "about": "“Pharmaceutical compositions” (ADEPTIO PHARMACEUTICALS LIMITED, priority 2017, dated 2023)",
  "key": {"[1]": {"assay": "equilibrium aqueous solubility by HPLC", "assay_type": "physicochemical", "details": "thermodynamic from solid; water, measured by HPLC; read-out: equilibrium solubility in water", "procedure": "The aqueous solubilities of salts were measured by an equilibrium method in which an amount of the salt was weighed into a 2 ml vial equipped with a magnetic stirrer bar and water added. In cases where complete dissolution was observed, more material was added until the sample was exhausted. The slurry was then stirred for seven days before isolating the solids by centrifuge-filtration. The solids were analysed by XRPD and the filtrates were analysed by HPLC to determine the amount of (+)-alpha-dihydrotetrabenazine salt in solution. The solubilities were calculated against a calibration curve established for a (+)-alpha-dihydrotetrabenazine sample of known concentration."}, "VMAT2": {"molecular_target": "T1, VMAT2 (Homo sapiens, UniProt Q05940)", "T1 construct": "from tissue; host or cells: living human volunteers (in vivo PET scan)", "T1 sequence (Q05940 whole entry)": "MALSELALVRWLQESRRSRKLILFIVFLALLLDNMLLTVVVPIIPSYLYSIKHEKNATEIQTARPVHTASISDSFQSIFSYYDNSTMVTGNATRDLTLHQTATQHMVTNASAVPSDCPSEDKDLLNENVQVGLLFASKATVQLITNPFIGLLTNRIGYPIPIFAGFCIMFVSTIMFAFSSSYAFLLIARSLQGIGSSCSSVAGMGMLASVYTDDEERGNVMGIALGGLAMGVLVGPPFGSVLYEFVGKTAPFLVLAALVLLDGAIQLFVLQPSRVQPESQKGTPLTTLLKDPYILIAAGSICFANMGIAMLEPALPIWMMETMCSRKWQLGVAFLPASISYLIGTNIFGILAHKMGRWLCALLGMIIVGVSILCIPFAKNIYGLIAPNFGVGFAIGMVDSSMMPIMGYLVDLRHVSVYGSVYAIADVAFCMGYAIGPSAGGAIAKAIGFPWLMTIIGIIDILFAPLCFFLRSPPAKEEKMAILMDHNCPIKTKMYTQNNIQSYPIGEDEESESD", "assay": "% VMAT2 blocking by PET scan in human volunteers", "assay_type": "in vivo", "excerpt": "Complete blocking of the VMAT2 proteins is considered undesirable as this can lead to unwanted side effects, such as Parkinsonism. […] The levels of VMAT2 blocking can be determined by competitive binding studies using Positron Emission Tomography (PET). By co-administering a radioactive ligand with the compound of interest at various concentrations, the proportion of binding sites occupied can be determined (see for example, Matthews et al., “Positron emission tomography molecular imaging for drug development”, Br. J. Clin. Pharmacol., 73:2, 175-186).\nIn four of the volunteers, blood sample were taken at 30, 60, 120 and 180 minutes after drug administration. Blood samples were not taken from the fifth volunteer. At 60 minutes after drug administration, PET scans were initiated and these were stopped at 120 minutes after drug administration.\nThe experiment was carried out at dosages of 7.5 mg, 15 mg and 22.5 mg."}, "[2]": {"tested_on": "non-amphetamine induced rats", "assay": "locomotor activity in rats without amphetamine induction, open field test", "assay_type": "in vivo, rat", "details": "Study 3, non-induced rats, 2.5 mg/kg or 5 mg/kg", "procedure": "All animal experiments were carried out according to the National Institute of Health (NIH) guidelines for the care and use of laboratory animals, and approved by the National Animal Experiment Board, Finland. Male CD (Charles River Laboratories, Germany) at weight range of 200-250 g (165-200 g upon arrival) were used for the experiments. Animals were housed at a standard temperature (22±1° C.) and in a light-controlled environment (lights on from 7 am to 8 pm) with ad libitum access to food and water.\nLocomotor activity of the rats was tested in open field arena. The open field test was performed during the rat light cycle and under a normal lighting evenly distributed to the test chambers. The paths of the rats were recorded by activity monitor (Med. Associates Inc.).\nDosing the vehicle, vehicle-amphetamine, (+)-α-DHTBZ or risperidone was done prior to LMA test. The rats were placed in the centre of the arena, and the path was recorded for 60 minutes.\nAnimals were grouped as follows: • Group 1: 10 rats treated with Vehicle • Group 2: 10 rats treated with (+)-α-DHTBZ 2.5 mg/kg • Group 3: 10 rats treated with (+)-α-DHTBZ 5 mg/kg • Group 4: 10 rats treated with risperidone 1 mg/kg"}, "[3]": {"assay": "pharmacokinetics after oral administration to male Beagle dogs", "assay_type": "in vivo, Beagle dog", "procedure": "Doses were administered orally, via gavage, at a dose volume of 2.00 mL/kg yielding the target dose level of 1.50 mg/kg. Following dosing, 10 mL of tap water was flushed down the gavage to ensure the entire dose was dispensed. Following dosing over four sessions each with one of the test materials, serial whole blood samples (circa. 1.3 mL) were collected from a jugular vein then placed into K2 EDTA treated tubes pre-dose and then 0.25, 0.50, 1, 2, 3, 4, 6, 12 and 24 hours post dose. Blood samples were placed immediately on a cool-block before being centrifuged within 15 minutes at 3,000×g, 10 minutes, 4° C. and resultant plasma drawn off. […] Doses were administered orally, via gavage, at a dose volume of 2.00 mL/kg yielding the target dose level of 1.50 mg/kg. Following dosing, 10 mL of tap water was flushed down the gavage to ensure the entire dose was dispensed. Following dosing over four sessions each with one of the test materials, serial whole blood samples (circa. 1.3 mL) were collected from a jugular vein then placed into K2 EDTA treated tubes pre-dose and then 0.25, 0.50, 1, 2, 3, 4, 6, 12 and 24 hours post dose. Blood samples were placed immediately on a cool-block before being centrifuged within 15 minutes at 3,000×g, 10 minutes, 4° C. and resultant plasma drawn off."}, "[4]": {"details": "male Beagle dogs, oral 1.50 mg/kg (freebase equivalent)"}},
  "data": [
    {"compound": "COc1cc2c(cc1OC)[C@H]1C[C@@H](O)[C@H](CC(C)C)CN1CC2", "note": "[(+)-α-dihydrotetrabenazine, (2R,3R,11bR)-3-isobutyl-9,10-dimethoxy-1,3,4,6,7,11b-hexahydro-2H-pyrido[2,1,a]isoquinolin-2-01]", "values": [
      {"measurement": "solubility thermodynamic at 7 days", "setting": "[1]", "result": 127, "unit": "µg/mL"},
      {"measurement": "% VMAT2 blocking", "setting": "VMAT2; heavier individuals, doses as low as 7.5 mg", "result": "at least 50%"},
      {"measurement": "% VMAT2 blocking", "setting": "VMAT2; subject 1 (112 kg), 7.5 mg oral, PET 60-120 minutes after administration", "result": 54, "unit": "%"},
      {"measurement": "% VMAT2 blocking", "setting": "VMAT2; subject 1 (112 kg), 15 mg oral, PET 60-120 minutes after administration", "result": 73, "unit": "%"},
      {"measurement": "% VMAT2 blocking", "setting": "VMAT2; subject 1 (112 kg), 22.5 mg oral, PET 60-120 minutes after administration", "result": 75, "unit": "%"},
      {"measurement": "% VMAT2 blocking", "setting": "VMAT2; subject 2 (76 kg), 7.5 mg oral, PET 60-120 minutes after administration", "result": 73, "unit": "%"},
      {"measurement": "% VMAT2 blocking", "setting": "VMAT2; subject 2 (76 kg), 15 mg oral, PET 60-120 minutes after administration", "result": 83, "unit": "%"},
      {"measurement": "% VMAT2 blocking", "setting": "VMAT2; subject 2 (76 kg), 22.5 mg oral, PET 60-120 minutes after administration", "result": 82, "unit": "%"},
      {"measurement": "% VMAT2 blocking", "setting": "VMAT2; subject 3 (129 kg), 7.5 mg oral, PET 60-120 minutes after administration", "result": 62, "unit": "%"},
      {"measurement": "% VMAT2 blocking", "setting": "VMAT2; subject 3 (129 kg), 15 mg oral, PET 60-120 minutes after administration", "result": 69, "unit": "%"},
      {"measurement": "% VMAT2 blocking", "setting": "VMAT2; subject 3 (129 kg), 22.5 mg oral, PET 60-120 minutes after administration", "result": 74, "unit": "%"},
      {"measurement": "% VMAT2 blocking", "setting": "VMAT2; subject 4 (59 kg), 7.5 mg oral, PET 60-120 minutes after administration", "result": 84, "unit": "%"},
      {"measurement": "% VMAT2 blocking", "setting": "VMAT2; subject 4 (59 kg), 15 mg oral, PET 60-120 minutes after administration", "result": 89, "unit": "%"},
      {"measurement": "% VMAT2 blocking", "setting": "VMAT2; subject 5 (91 kg), 7.5 mg oral, PET 60-120 minutes after administration", "result": 73, "unit": "%"},
      {"measurement": "% VMAT2 blocking", "setting": "VMAT2; subject 5 (91 kg), 15 mg oral, PET 60-120 minutes after administration", "result": 79, "unit": "%"},
      {"measurement": "% VMAT2 blocking", "setting": "VMAT2; subject 5 (91 kg), 22.5 mg oral, PET 60-120 minutes after administration", "result": 82, "unit": "%"},
      {"measurement": "stereotypic behaviour versus vehicle", "setting": "[2]", "result": "comparable"},
      {"measurement": "total movement versus vehicle", "setting": "[2]", "result": "comparable"},
      {"measurement": "Cmax", "setting": "[3]; dog, plasma, 1.5 mg/kg, male Beagle dogs, oral 1.50 mg/kg (freebase equivalent)", "result": 58.7, "unit": "ng/mL"},
      {"measurement": "mean exposure", "setting": "[3]; [4]", "result": 64.26, "unit": "ng·mL·h"},
      {"measurement": "time post dose at which Cmax was observed", "setting": "[3]; [4]", "result": 0.25, "unit": "h"},
      {"measurement": "concentration at 6 h", "setting": "[3]; male, Beagle (HsdRcc:DOBE), dog, plasma, po, 1.5 mg/kg, Plasma concentration of (+)-α-dihydrotetrabenazine, Male 2, oral 1.50 mg/kg (freebase equivalent), 6 h, BLQ = <0.10 ng/mL", "result": 0.113, "unit": "ng/mL"}
    ]}
  ]
}
